For 1 molecule, Km results are on record in publication PMC12512694, “PbrNAC34a- PbrMYB3/65- PbrACO2 cascade plays a role in citrate difference between the pericarp and cortex tissues of pear (P. bretschneideri Rehd.) fruit” (Molecular Horticulture, 2025).

The experiment relates to PbrACO2. To be noted: citrate to isocitrate conversion; recombinant His-PbrACO2.

`O=C(O)CC(O)(CC(=O)O)C(=O)O` [citrate]: the Km is 630 µM.

The term Km denotes the concentration of substrate that gives half-maximal velocity.
